Patent publication US9833497B2, “Human originated EGF domain proteins and use of the same” (CHENGDU SOURCEBIO LIMITED-LIABILITY COMPANY, priority 2013, dated 2017)

Experiments:
Type in all cases: cell-based
Klebsiella pneumonia = assay: MIC against Gram-negative bacteria: Klebsiella pneumonia; conditions: for MIC against K. pneumonia: Klebsiella pneumonia
How it was run: (§1)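 The recombinant human-originated EGF domain proteins were serially diluted two-fold against bacteria at 5×10^5 CFU/mL in LB medium. After shaken incubation at 37° C, the lowest concentration with no bacterial growth was recorded as the MIC.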

Proteus mirabilis = assay: MIC against Gram-negative bacteria: Proteus mirabilis; conditions: for MIC against P. mirabilis: Proteus mirabilis
How it was run: as §1

Enterobacter cloacae = assay: MIC against Gram-negative bacteria: Enterobacter cloacae; conditions: for MIC against E. cloacae: Enterobacter cloacae
How it was run: as §1

Serratia marcescens = assay: MIC against Gram-negative bacteria: Serratia marcescens; conditions: for MIC against S. marcescens: Serratia marcescens
How it was run: as §1

Aeromonas hydrophila = assay: MIC against Gram-negative bacteria: Aeromonas hydrophila; conditions: for MIC against A. hydrophila: Aeromonas hydrophila
How it was run: as §1

Moraxella catarrhalis = assay: MIC against Gram-negative bacteria: Moraxella catarrhalis; conditions: for MIC against M. catarrhalis: Moraxella catarrhalis
How it was run: as §1

Citrobacter diversus = assay: MIC against Gram-negative bacteria: Citrobacter diversus; conditions: for MIC against C. diversus: Citrobacter diversus
How it was run: as §1

Proteus vulgaris = assay: MIC against Gram-negative bacteria: Proteus vulgaris; conditions: for MIC against P. vulgaris: Proteus vulgaris
How it was run: as §1

Pseudomonas aeruginosa = assay: MIC against Gram-negative bacteria: Pseudomonas aeruginosa; conditions: for MIC against P. aeruginosa: Pseudomonas aeruginosa
How it was run: as §1

E. coli BL21 = assay: MIC against Gram-negative bacteria: E. coli BL21
How it was run: as §1

E. coli DH5α = assay: Antibacterial activity: MIC and growth curve against E. coli DH5α in 96-well plate; conditions: minimal inhibitory concentration against E. coli DH5α; 96-well plate, 5×10^5 CFU/mL, 37° C., judged after 8 h
How it was run: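 MIC taken as lowest protein level with no bacterial growth, tracked by A600 every 30 min during 37 °C, 175 rpm culture. Two-fold protein series 50-12.5 μg/mL final, triplicate wells, against 5×10^5 CFU/mL of LB-washed mid-log cells.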

[1] = 96-well plate, 5×10^5 CFU/mL, 37° C., 10 h
[2] = E. coli BL21, 96-well plate, 5×10^5 CFU/mL, 37° C., 10 h
[3] = K. pneumonia, 10 h cultivation at 37° C., 5×10^5 CFU/mL
[4] = P. mirabilis, 10 h cultivation at 37° C., 5×10^5 CFU/mL
[5] = E. cloacae, 10 h cultivation at 37° C., 5×10^5 CFU/mL
[6] = S. marcescens, 10 h cultivation at 37° C., 5×10^5 CFU/mL
[7] = A. hydrophila, 10 h cultivation at 37° C., 5×10^5 CFU/mL
[8] = M. catarrhalis, 10 h cultivation at 37° C., 5×10^5 CFU/mL
[9] = C. diversus, 10 h cultivation at 37° C., 5×10^5 CFU/mL
[10] = P. vulgaris, 10 h cultivation at 37° C., 5×10^5 CFU/mL
[11] = P. aeruginosa, 10 h cultivation at 37° C., 5×10^5 CFU/mL
[12] = E. coli BL21, 10 h cultivation at 37° C., 5×10^5 CFU/mL
[13] = 5×10^5 CFU/mL, 10 h cultivation at 37° C.

“PRT1297 (NACLSSPCKNNGTCTQDPVELYRCACPYSYKGKDCT; listed as Homo sapiens)” was tested, and the “MIC against K. pneumonia” value (Klebsiella pneumonia; [1]) was 25 µg/mL, the “MIC against P. mirabilis” value (Proteus mirabilis; [1]) was 25 µg/mL and the “MIC against E. cloacae” value (Enterobacter cloacae; [1]) was 50 µg/mL. For the same substance, the “MIC against S. marcescens” value (Serratia marcescens; [1]) was 50 µg/mL, the “MIC against A. hydrophila” value (Aeromonas hydrophila; [1]) was 12.5 µg/mL and the “MIC against M. catarrhalis” value (Moraxella catarrhalis; [1]) was 50 µg/mL. The “MIC against C. diversus” value (Citrobacter diversus; [1]) was 25 µg/mL, the “MIC against P. vulgaris” value (Proteus vulgaris; [1]) was 12.5 µg/mL and the “MIC against P. aeruginosa” value (Pseudomonas aeruginosa; [1]) was 12.5 µg/mL. The “MIC against E. coli BL21” value (E. coli BL21; [2]) was 50 µg/mL and the MIC (E. coli DH5α) was 12.5 µg/mL.

“PRT222 (DVDECAQALHDCRPSQDCHNLPGSYQCTCPDGYRKIGPECV; listed as Homo sapiens)” was tested, and the “MIC (μg/mL) K. pneumonia” value (Klebsiella pneumonia; [3]) was 12.5 µg/mL, the “MIC (μg/mL) P. mirabilis” value (Proteus mirabilis; [4]) was 25 µg/mL and the “MIC (μg/mL) E. cloacae” value (Enterobacter cloacae; [5]) was 25 µg/mL. The “MIC (μg/mL) S. marcescens” value (Serratia marcescens; [6]) was 25 µg/mL, the “MIC (μg/mL) A. hydrophila” value (Aeromonas hydrophila; [7]) was 12.5 µg/mL and the “MIC (μg/mL) M. catarrhalis” value (Moraxella catarrhalis; [8]) was 12.5 µg/mL. For the same substance, the “MIC (μg/mL) C. diversus” value (Citrobacter diversus; [9]) was 25 µg/mL, the “MIC (μg/mL) P. vulgaris” value (Proteus vulgaris; [10]) was 12.5 µg/mL and the “MIC (μg/mL) P. aeruginosa” value (Pseudomonas aeruginosa; [11]) was 12.5 µg/mL. For the same substance, the “MIC (μg/mL) E. coli BL21” value (E. coli BL21; [12]) was 12.5 µg/mL and the MIC (E. coli DH5α) was 50 µg/mL.

With “PRT1333 (PIPECAALLCPENSRCSPSTEDENKLECKCLPNYRGDGKYCD; listed as Homo sapiens)” the “MIC against K. pneumonia” value (Klebsiella pneumonia; [1]) was 25 µg/mL, the “MIC against P. mirabilis” value (Proteus mirabilis; [1]) was 12.5 µg/mL and the “MIC against E. cloacae” value (Enterobacter cloacae; [1]) was 12.5 µg/mL. The “MIC against S. marcescens” value (Serratia marcescens; [1]) was 12.5 µg/mL, the “MIC against A. hydrophila” value (Aeromonas hydrophila; [1]) was 25 µg/mL and the “MIC against M. catarrhalis” value (Moraxella catarrhalis; [1]) was 25 µg/mL. The “MIC against C. diversus” value (Citrobacter diversus; [1]) was 12.5 µg/mL, the “MIC against P. vulgaris” value (Proteus vulgaris; [1]) was 25 µg/mL and the “MIC against P. aeruginosa” value (Pseudomonas aeruginosa; [1]) was 25 µg/mL. For the same substance, the “MIC against E. coli BL21” value (E. coli BL21; [2]) was 12.5 µg/mL and the MIC (E. coli DH5α) was 25 µg/mL.

In the case of “PRT1384 (STRTCPRDCRGRGRCEDGECICDTGYSGDDC; listed as Homo sapiens)”, the “MIC against K. pneumonia” value (Klebsiella pneumonia; [13]) is reported as 50 µg/mL, the “MIC against P. mirabilis” value (Proteus mirabilis; [13]) is reported as 25 µg/mL and the “MIC against E. cloacae” value (Enterobacter cloacae; [13]) is reported as 25 µg/mL. The “MIC against S. marcescens” value (Serratia marcescens; [13]) was 25 µg/mL, the “MIC against A. hydrophila” value (Aeromonas hydrophila; [13]) was 25 µg/mL and the “MIC against M. catarrhalis” value (Moraxella catarrhalis; [13]) was 12.5 µg/mL. The “MIC against C. diversus” value (Citrobacter diversus; [13]) was 25 µg/mL, the “MIC against P. vulgaris” value (Proteus vulgaris; [13]) was 50 µg/mL and the “MIC against P. aeruginosa” value (Pseudomonas aeruginosa; [13]) was 25 µg/mL. The “MIC against E. coli BL21” value (E. coli BL21; E. coli BL21, 5×10^5 CFU/mL, 10 h cultivation at 37° C.) was 12.5 µg/mL and the MIC (E. coli DH5α) was 25 µg/mL.

In the case of “PRT261 (CAHGHGGCSPHANCTKVAPGQRTCTCQDGYMGDGELC; listed as Homo sapiens)”, the “MIC (μg/mL) K. pneumonia” value (Klebsiella pneumonia; [3]) is reported as 12.5 µg/mL, the “MIC (μg/mL) P. mirabilis” value (Proteus mirabilis; [4]) is reported as 25 µg/mL and the “MIC (μg/mL) E. cloacae” value (Enterobacter cloacae; [5]) is reported as 50 µg/mL. For the same substance, the “MIC (μg/mL) S. marcescens” value (Serratia marcescens; [6]) was 50 µg/mL, the “MIC (μg/mL) A. hydrophila” value (Aeromonas hydrophila; [7]) was 12.5 µg/mL and the “MIC (μg/mL) M. catarrhalis” value (Moraxella catarrhalis; [8]) was 50 µg/mL. For the same substance, the “MIC (μg/mL) C. diversus” value (Citrobacter diversus; [9]) was 25 µg/mL, the “MIC (μg/mL) P. vulgaris” value (Proteus vulgaris; [10]) was 12.5 µg/mL and the “MIC (μg/mL) P. aeruginosa” value (Pseudomonas aeruginosa; [11]) was 12.5 µg/mL. The “MIC (μg/mL) E. coli BL21” value (E. coli BL21; [12]) was 12.5 µg/mL and the MIC (E. coli DH5α) was 12.5 µg/mL.

For “PRT631 (CSCHPQGSVSEQMPCDPVTGQCSCLPHVTARDCSRCYPGFFDLQPGRGCRS; listed as Homo sapiens)”, the “MIC K. pneumonia” value (Klebsiella pneumonia; [1]) was 12.5 µg/mL, the “MIC P. mirabilis” value (Proteus mirabilis; [1]) was 25 µg/mL and the “MIC E. cloacae” value (Enterobacter cloacae; [1]) was 25 µg/mL. For the same substance, the “MIC S. marcescens” value (Serratia marcescens; [1]) was 25 µg/mL, the “MIC A. hydrophila” value (Aeromonas hydrophila; [1]) was 12.5 µg/mL and the “MIC M. catarrhalis” value (Moraxella catarrhalis; [1]) was 12.5 µg/mL. The “MIC C. diversus” value (Citrobacter diversus; [1]) was 25 µg/mL, the “MIC P. vulgaris” value (Proteus vulgaris; [1]) was 12.5 µg/mL and the “MIC P. aeruginosa” value (Pseudomonas aeruginosa; [1]) was 25 µg/mL. The “MIC E. coli BL21” value (E. coli BL21; [1]) was 12.5 µg/mL and the MIC (E. coli DH5α) was 25 µg/mL.

“PRT1017 (NPDNCVSHQCQNGGTCQDGLDTYTCLCPETWTGWDCS; listed as Homo sapiens)” showed an MIC (Klebsiella pneumonia; K. pneumonia, 10 h cultivation at 37° C.) of 12.5 µg/mL, an MIC (Proteus mirabilis; P. mirabilis, 10 h cultivation at 37° C.) of 50 µg/mL and an MIC (Enterobacter cloacae; E. cloacae, 10 h cultivation at 37° C.) of 12.5 µg/mL. The MIC (Serratia marcescens; S. marcescens, 10 h cultivation at 37° C.) was 50 µg/mL, the MIC (Aeromonas hydrophila; A. hydrophila, 10 h cultivation at 37° C.) was 12.5 µg/mL and the MIC (Moraxella catarrhalis; M. catarrhalis, 10 h cultivation at 37° C.) was 12.5 µg/mL. For the same substance, the MIC (Citrobacter diversus; C. diversus, 10 h cultivation at 37° C.) was 12.5 µg/mL, the MIC (Proteus vulgaris; P. vulgaris, 10 h cultivation at 37° C.) was 12.5 µg/mL and the MIC (Pseudomonas aeruginosa; P. aeruginosa, 10 h cultivation at 37° C.) was 12.5 µg/mL. The MIC (E. coli BL21; E. coli BL21, 10 h cultivation at 37° C.) was 12.5 µg/mL and the MIC (E. coli DH5α) was 50 µg/mL.
